Experimental findings from patent US20140079836A1, “METHODS AND COMPOSITIONS FOR ALTERING HEALTH, WELLBEING, AND LIFESPAN” (LifeSpan Extension, LLC, priority 2008, published 2014) are described below.

This assay has as its system telomerase. In words: Quantitative telomerase detection (telomeric repeat formation + PCR) in skin fibroblasts (donor four AG7308, donor one AG14271) with or without UVB. It is filed as cell-based, human. As to the method: Culture media: Cells were grown in Minimal Essential Medium supplemented with 10% fetal bovine serum, 2 mM L-glutamine, 2 mM Glutamax I, and 1× MEM non-essential amino acids solution. Cells were washed in the same medium, but without the fetal bovine serum. […] All cultures were incubated at 37° C. with 5% CO2 in a humidified chamber. Seeding of cells: […] Three wells were seeded per test condition or control. Experimental phase: On Day 3, wells were washed 1× with 2 mls medium, fed back 2 mls medium without fetal bovine serum and preincubated for 30-60 minutes before challenge with test or control conditions. […] The green tea polyphenols used were Premier Green Tea Extract Lot #10783, obtained from Pharma Cosmetix Research, LLC (Richmond, Va.). The Green Tea extract was measured into a stock solution of the above described Minimal Essential Media+1% Fetal Bovine Serum in a w/v ratio and then serially diluted into the testing concentrations with MEM+1% Fetal Bovine Serum. Three conditions were tested: […] UVB exposed and unexposed cells without test condition were used as controls. […] Cells from each test and control parameter were then trypsinized, collected by centrifugation, washed 3 times in PBS, and a cell count made using a hemacytometer. The final pellet was stored at −80° C. until processed further. UVB exposure: […] Cells were exposed from the bottom of the culture dish. The UVB dose delivered to the cells was adjusted for interference from the plastic in the culture dish. […] Extract from the cell pellets stored at −80 C post experimental phase was prepared for PCR according to the instructions in the Allied Biotech, Inc, Quantitative Telomerase Detection Kit. Briefly, pellets were thawed and immediately resuspended in 200 ul 1× Lysis Buffer per […]. The suspension was incubated on ice for 30 minutes, then microcentrifuged at 12,000×g for 30 minutes at 4° C. The supernatant was aliquoted and stored at −80° C. Detection of Telomerase: The extract from the cells allows for determination of telomerase activity by coupling the extract's ability to form telomeric repeats onto an oligonucleotide substrate and the resultant extended product are amplified using Polymerase Chain Reaction. These products are then visualized with SYBR green a fluorescent detection agent that emits green fluorescence when bound to the double stranded DNA product. […] The samples were run in a BioRad iCycler for 20 minutes at 25° C. to complete the telomerase reaction. The PCR initial activation step followed immediately and was of 10 minute duration at […]. […] The SYBR green detection occurred during the extension phase. Telomerase Detection Results: […] The raw analysis is provided in DATA TABLE 1. […] Culture media: Cells were grown in Minimal Essential Medium supplemented with 10% fetal bovine serum, 2 mM L-glutamine, 2 mM Glutamax I, and 1×MEM non-essential amino acids solution. Cells were washed in the same medium, but without the fetal bovine serum. […] All cultures were incubated at 37° C. with 5% CO2 in a humidified chamber. Seeding of cells: […] Three wells were seeded per test condition or control. Experimental phase: On Day 3, wells were washed 1× with 2 mls medium, fed back 2 mls medium without fetal bovine serum and preincubated for 30-60 minutes before challenge with test or control conditions. […] The 1% stock solution was also diluted with MEM+1% FBS until the testing concentrations were reached. Three conditions were tested: […] UVB exposed and unexposed cells without test condition were used as controls. […] Cells from each test and control parameter were then trypsinized, collected by centrifugation, washed 3 times in PBS, and a cell count made using a hemacytometer. The final pellet was stored at −80° C. until processed further. UVB exposure: […] Cells were exposed from the bottom of the culture dish. The UVB dose delivered to the cells was adjusted for interference from the plastic in the culture dish. […]

SMILES strings stand for the structures.

As for `COC1=C(OC)C(=O)C(CCCCCCCCCCO)=C(C)C1=O` [Idebenone, 6-(10-hydroxydecyl)-2,3-dimethoxy-5-methyl-1,4-benzoquin-one], the Level of telomerase is, setting by setting: (donor four UVB + agent 4 hr, compared to UVB Tx Control) −1.07; (donor four UVB + agent 4 hr, compared to UnTx Control) 90.51; (donor four UVB + agent Continuous, compared to UVB Tx Control) −1.00; (donor four UVB + agent Continuous, compared to UnTx Control) 97.01; (donor four idebenone Vs. person idebenone 4 hr) 1.46. For the same molecule, where the note is “donor four cells given Idebenone”, the “less telomerase activity than untreated cells” value is on record as “roughly 53%”. The telomerase activity reads like this: (donor four cells given Idebenone and 1 MED UVB vs UVB stressed cells alone) −1.7 fold; (donor four cells given Idebenone and 1 MED UVB vs untreated cells) −2.4 fold; (donor one cells given Idebenone and 1 MED UVB vs UVB treated age matched controls) −2.65 fold; (donor one cells given Idebenone and 1 MED UVB vs untreated controls) “roughly −2.61 fold”. In addition, for the setting “stressed (UVB) and unstressed cells”, the “telomerase activity (summary in words)” value was “decreased level of telomerase activity”.
